Measurements reported in BigSolDB 2.1.

O=[PH](O)c1ccccc1
Details	solubility (mole fraction)
in 2-ethoxyethanol, 288.15 K	0.124
in 2-ethoxyethanol, 293.85 K	0.136
in 2-ethoxyethanol, 298.25 K	0.148
in 2-ethoxyethanol, 303.45 K	0.165
in 2-ethoxyethanol, 313.15 K	0.205
in 2-ethoxyethanol, 318.25 K	0.227
in 2-ethoxyethanol, 323.65 K	0.239
in 2-ethoxyethanol, 328.25 K	0.259
in 2-ethoxyethanol, 333.45 K	0.283
in 2-ethoxyethanol, 338.35 K	0.308
in 2-ethoxyethanol, 343.25 K	0.344
in 2-ethoxyethanol, 348.25 K	0.372
in 2-ethoxyethanol, 353.25 K	0.397
in 2-ethoxyethanol, 358.55 K	0.434
in 2-ethoxyethanol, 363.15 K	0.459
in acetone, 293.35 K	0.0305
in acetone, 298.15 K	0.0448
in acetone, 303.55 K	0.0671
in acetone, 308.25 K	0.0879
in acetone, 313.45 K	0.124
in acetone, 318.25 K	0.186
in acetone, 323.35 K	0.256
in benzene, 299.15 K	0.054
in benzene, 303.65 K	0.0709
in benzene, 308.55 K	0.111
in benzene, 313.25 K	0.145
in benzene, 318.45 K	0.225
in benzene, 323.15 K	0.308
in benzene, 328.35 K	0.415
in benzene, 333.15 K	0.554
in chloroform, 293.15 K	0.134
in chloroform, 298.45 K	0.157
in chloroform, 303.25 K	0.186
in chloroform, 308.25 K	0.228
in chloroform, 313.15 K	0.269
in chloroform, 318.35 K	0.315
in chloroform, 323.25 K	0.357
in dichloromethane, 288.15 K	0.0292
in dichloromethane, 293.35 K	0.0386
in dichloromethane, 296.25 K	0.0458
in dichloromethane, 298.15 K	0.0528
in dichloromethane, 303.45 K	0.0709
in dichloromethane, 308.25 K	0.091
in ethanol, 283.25 K	0.0889
in ethanol, 288.65 K	0.112
in ethanol, 293.15 K	0.136
in ethanol, 298.35 K	0.168
in ethanol, 303.45 K	0.205
in ethanol, 308.25 K	0.245
in ethanol, 313.45 K	0.297
in ethanol, 318.55 K	0.356
in ethanol, 323.35 K	0.42
in ethyl acetate, 293.45 K	0.0144
in ethyl acetate, 298.15 K	0.0185
in ethyl acetate, 303.25 K	0.0275
in ethyl acetate, 313.45 K	0.0494
in ethyl acetate, 318.25 K	0.0661
in ethyl acetate, 328.35 K	0.107
in ethyl acetate, 333.25 K	0.136
in ethyl acetate, 338.55 K	0.174
in methanol, 293.55 K	0.173
in methanol, 298.15 K	0.215
in methanol, 303.75 K	0.28
in methanol, 308.35 K	0.344
in methanol, 313.45 K	0.429
in methanol, 318.25 K	0.526
in methanol, 323.65 K	0.655
in toluene, 293.15 K	0.0187
in toluene, 298.35 K	0.0282
in toluene, 303.45 K	0.0389
in toluene, 313.25 K	0.0652
in toluene, 318.15 K	0.0934
in toluene, 323.35 K	0.125
in toluene, 328.15 K	0.162
in toluene, 333.55 K	0.199
in toluene, 338.45 K	0.255
in toluene, 343.15 K	0.316
in toluene, 348.35 K	0.413
in water, 297.79 K	0.0095
in water, 300.25 K	0.0111
in water, 302.4 K	0.0129
in water, 305.22 K	0.0159
in water, 309.93 K	0.0218
in water, 312.84 K	0.0305
in water, 318.15 K	0.0433
in water, 323.35 K	0.0572
in water, 328.15 K	0.085
in water, 333.45 K	0.11
in water, 338.25 K	0.161
in water, 343.15 K	0.208

c1ccc(OP2(Oc3ccccc3)=NP(Oc3ccccc3)(Oc3ccccc3)=NP(Oc3ccccc3)(Oc3ccccc3)=N2)cc1
Details	solubility (mole fraction)
in 2-ethoxyethanol, 298.15 K	0.0065
in 2-ethoxyethanol, 300.95 K	0.0074
in 2-ethoxyethanol, 303.25 K	0.0081
in 2-ethoxyethanol, 310.15 K	0.0106
in 2-ethoxyethanol, 314.55 K	0.0126
in 2-ethoxyethanol, 318.75 K	0.0148
in 2-ethoxyethanol, 323.65 K	0.0182
in 2-ethoxyethanol, 328.05 K	0.0212
in 2-ethoxyethanol, 333.15 K	0.0259
in 2-ethoxyethanol, 343.25 K	0.0352
in 2-ethoxyethanol, 348.35 K	0.042
in 2-ethoxyethanol, 353.15 K	0.0478
in THF, 293.25 K	0.151
in THF, 298.15 K	0.175
in THF, 304.35 K	0.2
in THF, 308.25 K	0.223
in THF, 314.25 K	0.253
in THF, 318.45 K	0.285
in THF, 323.15 K	0.315
in THF, 328.25 K	0.346
in acetone, 293.15 K	0.0295
in acetone, 296.45 K	0.0349
in acetone, 300.25 K	0.0423
in acetone, 304.35 K	0.0496
in acetone, 308.25 K	0.0588
in acetone, 314.25 K	0.0782
in acetone, 318.35 K	0.093
in acetone, 323.15 K	0.117
in acetonitrile, 298.25 K	0.004
in acetonitrile, 303.55 K	0.006
in acetonitrile, 308.25 K	0.0082
in acetonitrile, 313.35 K	0.0122
in acetonitrile, 318.35 K	0.017
in acetonitrile, 323.45 K	0.0243
in acetonitrile, 328.15 K	0.0332
in acetonitrile, 333.25 K	0.0457
in dichloromethane, 293.35 K	0.099
in dichloromethane, 295.95 K	0.111
in dichloromethane, 300.35 K	0.139
in dichloromethane, 303.15 K	0.158
in dichloromethane, 306.05 K	0.179
in dichloromethane, 310.35 K	0.219
in diethyl ether, 293.15 K	0.0101
in diethyl ether, 296.25 K	0.0122
in diethyl ether, 299.05 K	0.014
in diethyl ether, 300.35 K	0.0154
in diethyl ether, 303.15 K	0.0178
in diethyl ether, 306.05 K	0.0211
in ethanol, 298.25 K	0.0096
in ethanol, 300.95 K	0.0099
in ethanol, 303.25 K	0.0102
in ethanol, 308.15 K	0.011
in ethanol, 313.45 K	0.0119
in ethanol, 318.75 K	0.0129
in ethanol, 323.05 K	0.0136
in ethanol, 328.35 K	0.0147
in ethyl acetate, 298.15 K	0.0592
in ethyl acetate, 300.95 K	0.0655
in ethyl acetate, 303.25 K	0.0699
in ethyl acetate, 308.25 K	0.0829
in ethyl acetate, 313.25 K	0.0983
in ethyl acetate, 319.05 K	0.119
in ethyl acetate, 323.15 K	0.136
in ethyl acetate, 328.25 K	0.159
in n-heptane, 298.15 K	0.0035
in n-heptane, 303.45 K	0.0039
in n-heptane, 308.35 K	0.0044
in n-heptane, 313.05 K	0.0049
in n-heptane, 318.25 K	0.0056
in n-heptane, 323.35 K	0.0062
in n-heptane, 328.25 K	0.0069
in n-heptane, 333.15 K	0.0075
in toluene, 298.05 K	0.0572
in toluene, 300.95 K	0.065
in toluene, 303.35 K	0.0717
in toluene, 310.25 K	0.0904
in toluene, 314.45 K	0.106
in toluene, 318.65 K	0.123
in toluene, 323.55 K	0.15
in toluene, 327.95 K	0.173
in toluene, 333.15 K	0.209
in toluene, 338.25 K	0.246

CP(=O)(O)c1ccccc1
Details	solubility (mole fraction)
in 2-ethoxyethanol, 298.15 K	0.252
in 2-ethoxyethanol, 303.15 K	0.289
in 2-ethoxyethanol, 313.25 K	0.348
in 2-ethoxyethanol, 318.15 K	0.397
in 2-ethoxyethanol, 323.35 K	0.441
in 2-ethoxyethanol, 328.25 K	0.472
in 2-ethoxyethanol, 333.15 K	0.519
in 2-ethoxyethanol, 338.45 K	0.587
in 2-ethoxyethanol, 343.35 K	0.639
in 2-ethoxyethanol, 348.35 K	0.697
in 2-ethoxyethanol, 353.15 K	0.751
in acetone, 293.15 K	0.0473
in acetone, 298.15 K	0.0609
in acetone, 303.25 K	0.0816
in acetone, 308.15 K	0.0995
in acetone, 313.35 K	0.127
in acetone, 318.15 K	0.165
in acetone, 323.25 K	0.204
in benzene, 293.25 K	0.0386
in benzene, 298.15 K	0.0541
in benzene, 303.15 K	0.0809
in benzene, 308.35 K	0.113
in benzene, 313.25 K	0.163
in benzene, 318.15 K	0.218
in benzene, 323.25 K	0.301
in benzene, 328.15 K	0.419
in benzene, 333.35 K	0.563
in chloroform, 293.15 K	0.112
in chloroform, 298.25 K	0.132
in chloroform, 303.15 K	0.156
in chloroform, 308.35 K	0.188
in chloroform, 313.15 K	0.214
in chloroform, 318.45 K	0.255
in chloroform, 323.15 K	0.288
in chloroform, 328.15 K	0.34
in dichloromethane, 288.55 K	0.0465
in dichloromethane, 293.65 K	0.0697
in dichloromethane, 296.15 K	0.0904
in dichloromethane, 298.35 K	0.104
in dichloromethane, 303.25 K	0.164
in dichloromethane, 308.35 K	0.235
in ethanol, 293.25 K	0.205
in ethanol, 298.15 K	0.266
in ethanol, 303.35 K	0.333
in ethanol, 308.25 K	0.39
in ethanol, 313.55 K	0.486
in ethanol, 318.45 K	0.614
in ethanol, 323.15 K	0.734
in ethanol, 328.25 K	0.872
in ethyl acetate, 288.35 K	0.0484
in ethyl acetate, 293.15 K	0.0621
in ethyl acetate, 298.25 K	0.075
in ethyl acetate, 303.45 K	0.0941
in ethyl acetate, 313.35 K	0.152
in ethyl acetate, 318.15 K	0.182
in ethyl acetate, 328.15 K	0.265
in ethyl acetate, 333.35 K	0.304
in ethyl acetate, 338.15 K	0.359
in ethyl acetate, 343.25 K	0.428
in methanol, 298.35 K	0.317
in methanol, 303.15 K	0.343
in methanol, 308.15 K	0.372
in methanol, 313.25 K	0.406
in methanol, 318.35 K	0.439
in methanol, 323.15 K	0.471
in methanol, 328.25 K	0.499
in toluene, 293.25 K	0.12
in toluene, 298.35 K	0.147
in toluene, 303.25 K	0.168
in toluene, 308.35 K	0.204
in toluene, 313.15 K	0.229
in toluene, 323.25 K	0.327
in toluene, 328.35 K	0.377
in toluene, 333.25 K	0.418
in toluene, 338.15 K	0.479
in toluene, 343.45 K	0.564
in water, 298.15 K	0.0154
in water, 303.35 K	0.0204
in water, 310.45 K	0.027
in water, 314.25 K	0.032
in water, 320.45 K	0.0414
in water, 324.15 K	0.0477
in water, 329.25 K	0.0579
in water, 333.65 K	0.0679
in water, 338.75 K	0.0865
in water, 343.45 K	0.0968
in water, 348.25 K	0.12
